Experiment [1] has as its system MiaPaca-2 (expressing KRAS G12C mutant). Briefly: Proliferation Assay (Cell Viability Assay). Type of experiment: cell-based. Particulars: Homo sapiens, MIA PaCa-2; read-out: Proliferation in MiaPaca-2: IC50. The method, boiled down:
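After 2–4 days' exposure at 37 °C, 5% CO2 to a single 10 μM final concentration or a dilution series (IC50), percent proliferation inhibition was derived from CellTiter 96 Aqueous One viability readings. The medium contained 0.3% DMSO and 10% FBS. KRAS G12C MiaPaca-2 cells were plated at 2000–5000/well the day before.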

The subject of experiment [2] is Smad2/Smad3 phosphorylation. Briefly: Phospho-Smad2/3 Inhibition Assay (western blot), Panc-1. Type of experiment: cell-based, human. The following applies: at 10 μM, Panc-1 pancreatic cancer cell line; starred symbols = activation. The method in brief:
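Western blotting of lysates (15-50 μg protein) read phosphorylation of Smad2 Ser465/467 and Smad3 Ser423/425. Before lysis, Panc-1 cells got 1 h of 10 ng/ml TGF-b1 following 3 h compound exposure at 37° C (10 μM final, or serial dilutions for IC50, 0.3% DMSO) after overnight 0.5% FBS starvation.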
(A western blot detects proteins with antibodies after separation by electrophoresis.)

The source of these data is US12459951B2, “Compounds that interact with RAS superfamily proteins for treatment of cancers, inflammatory diseases, rasopathies, and fibrotic disease” (SHY Therapeutics, LLC, priority 2022, dated 2025).

`COc1cnc(Nc2nc(-c3nccn3C)nn3cc(-c4ccn(C)n4)c(C)c23)cn1` [Compound 110, N-(5-Methoxypyrazin-2-yl)-5-methyl-2-(1-methyl-1H-imidazol-2-yl)-6-(1-methyl-1H-pyrazol-3-yl)pyrrolo[2,1-f][1,2,4]triazin-4-amine]: in experiment [1], the IC50 is under 150 nM. Besides, in experiment [2], the “% inh of Smad2/3 phosphorylation in Panc-1” value is listed as “A* (A* = 1-25% activation)”.
Taken in the same sequence, the figures for `Cc1c(-c2ccn(C(C)C)n2)cn2nc(-c3nccn3C)nc(Nc3nccn3C)c12` [Compound 93, 6-(1-Isopropyl-1H-pyrazol-3-yl)-5-methyl-N,2-bis(1-methyl-1H-imidazol-2-yl)pyrrolo[2,1-f][1,2,4]triazin-4-amine] were 150 to 500 nM and “A (A = 1-25% inhibition)”.
